Experimental data from patent US10604514B2, “6-(5-membered heteroaryl)isoquinolin-3-yl carboxamides and preparation and use thereof” (Samumed, LLC, priority 2017, dated 2020).
Like-named read-outs stand apart in the source and are kept apart here.

Legend:
[1] = test system: Tau phosphorylation at Ser396 (pSer396), SH-SY5Y cells; assay: Tau phosphorylation at Ser396 (pSer396) in SH-SY5Y cells, ELISA/western blot; format: cell-based, human; details: Homo sapiens;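 further: cell lysates probed for reduced Tau pSer396 via ELISA (colorimetric) or western blot (chemiluminescence), both with one shared pSer396 antibody, EC50 for lowering phosphorylation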
[2] = test system: SW480 colon carcinoma cells; assay: Cell viability assay (CellTiter-Glo) in SW480 cells; format: cell-based, human;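 further: SW480 cells stably carrying an Sp5-luciferase TCF/LEF reporter, luminescent ATP signal as viability measure, DMSO-treated cells as control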
[3] = test system: IL-6; assay: IL-6 inhibition in LPS-stimulated human peripheral blood mononuclear cells (HTRF); format: cell-based; details: Homo sapiens, PBMC; for inhibition at 10 µM: read-out: percent value in parentheses below EC50 >10; for EC50: IL-6, LPS-stimulated huPBMCs, HTRF
Procedure, shortened: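 Fresh human PBMCs (5000 cells/well, 1% FBS RPMI) preincubated with compound (10-point 1:3 series from 10 μM, 0.25% DMSO) 2 h at 37 °C, then stimulated with 50 ng/mL E. coli LPS for 22 h. IL-6 by HTRF 665/620 ratio; DMSO-normalized, EC50 from 4-parameter fit.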

[4] = target: GSK3β kinase (Homo sapiens (Human), UniProt P49841); assay: GSK3β kinase assay (Ser/Thr 09 peptide Z-lyte, FRET); format: biochemical; details: method text calls the value IC50;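 further: Coumarin/fluorescein emission ratio converted to percent phosphorylation against unphosphorylated (0%) and phosphorylated (100%) controls, 1 h compound incubation at room temperature, 11-point threefold dilutions from 10 µM, run in duplicate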
Procedure: Representative compounds were screened using the assay procedure for GSK30 kinase activity as described below.
Each compound is dissolved in DMSO as a 10 mM stock and used to prepare compound source plates. Serial dilution (1:3, 11-point dose-response curves from 10 M to 0.0003 μM) and compound transfer was performed using the ECHO 550 (Labcyte, Sunnyvale, Calif.) into 1536-well black-walled round bottom plates (Corning).
This is a non-radioactive assay using fluorescence resonance energy transfer (FRET) between coumarin and fluorescein to detect kinase activity which is represented as ratio of coumarin emission/fluorescein emission.
The mixture is allowed to incubate with the representative compounds for one hour at room temperature. All reactions were performed in duplicate. Unphosphorylated (“0% Control”) and phosphorylated (“100% control”) forms of Ser/Thr 18 serve as control reactions.
After incubation, diluted Development Buffer is added to the reaction and allowed to further incubate for one hour at room temperature.
The percent phosphorylation is then calculated using the following formula: [1−((Em ratio×F100%)−C100%)/((C0%−C100%)+(Em ratio×(F100%−F0%)))].
Dose-response curves are generated and inhibitory concentration (IC50) values are calculated using non-linear regression curve fit in the Dotmatics' Studies Software (Bishops Stortford, UK).

[5] = test system: LL29 cells (primary human fibroblasts derived from IPF patients), α-smooth muscle actin; assay: Inhibition of fibrotic process: αSMA in TGF-β1-treated primary human fibroblasts from IPF patients (LL29 cells); format: cell-based; details: Homo sapiens, Fibroblast; for EC50: 96 h, % αSMA-positive LL29 cells, TGF-β1 20 ng/mL, 4 days; for inhibition at 10 µM: read-out: percent inhibition at 10 μM
Procedure, shortened: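 IPF-patient lung fibroblasts (LL29) were stimulated with TGF-β1 (20 ng/mL) in 1% FBS medium with compound (11-point 1:2 series, 0.1% DMSO) for 4 days at 37 °C. Fixed cells were immunostained for αSMA and imaged, excluding SYTOX-positive dead cells. The % αSMA-positive cells was normalized to TGF-β1/DMSO control wells.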

[6] = target: DYRK1A kinase (Homo sapiens (Human), UniProt Q13627); assay: DYRK1A kinase assay (Ser/Thr 18 peptide Z-lyte, FRET)
[7] = test system: Wnt activity (Sp5-Luc reporter in SW480 colon carcinoma cells); assay: Wnt activity screening assay (Sp5-Luc reporter gene assay); format: cell-based, human
Procedure, shortened: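 SW480 cells stably carrying an Sp5 promoter (eight TCF/LEF sites)-firefly luciferase reporter were plated in DMEM with 1% FBS and treated with a 10-point, 1:3 dilution series from 10 μM (0.1% DMSO) for 36 to 48 h at 37° C. Luminescence was normalized to DMSO controls, and EC50 came from four-parameter nonlinear regression.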

[8] = SH-SY5Y cells, overnight (16-18 h), read-out: pSer396 Tau EC50
[9] = Homo sapiens, 96 h; cell viability, SW480 cells, four days, CellTiter-Glo
[10] = DYRK1A kinase, method text calls the value IC50
[11] = Homo sapiens; Sp5-Luc reporter, SW480 cells, 36 to 48 hours
[12] = Homo sapiens, SW480; read-out: percent inhibition at 10 μM
[13] = Homo sapiens, SW480, read-out: percent inhibition at 10 μM

Chain of GSK3β kinase (P49841 whole entry): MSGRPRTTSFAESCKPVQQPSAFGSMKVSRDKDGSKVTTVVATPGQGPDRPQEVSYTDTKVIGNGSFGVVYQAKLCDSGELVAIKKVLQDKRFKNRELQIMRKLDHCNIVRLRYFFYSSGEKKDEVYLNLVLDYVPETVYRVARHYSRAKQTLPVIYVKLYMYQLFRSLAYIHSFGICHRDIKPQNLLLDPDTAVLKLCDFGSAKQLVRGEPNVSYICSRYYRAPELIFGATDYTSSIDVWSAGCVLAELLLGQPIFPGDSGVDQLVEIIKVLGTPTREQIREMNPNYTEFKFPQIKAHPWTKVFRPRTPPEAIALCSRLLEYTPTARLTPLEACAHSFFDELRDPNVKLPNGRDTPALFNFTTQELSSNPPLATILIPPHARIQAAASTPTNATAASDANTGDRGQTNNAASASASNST

EC50 [1, 8] | EC50 [2, 9] | EC50 [3] | EC50 [4] | EC50 [6, 10] | EC50 [7, 11] | EC50 [6] | SMILES | inhibition at 10 µM [3] | EC50 [5] | inhibition at 10 µM [2, 12] | inhibition at 10 µM [7, 12] | inhibition at 10 µM [5] | EC50 ([1]; SH-SY5Y, read-out: pSer396 Tau EC50 (μM)) | inhibition at 10 µM [2, 13] | inhibition at 10 µM [7, 13]
0.656 µM | 3620 nM | > 10000 nM | 90 nM | 18 nM | 1810 nM | – | Cc1nnc(-c2ccc3cnc(NC(=O)N4CCC(N5CCN(C)CC5)CC4)cc3c2)s1 [Compound 129, N-(6-(5-methyl-1,3,4-thiadiazol-2-yl)isoquinolin-3-yl)-4-(4-methylpiperazin-1-yl)piperidine-1-carboxamide] | 4.5% | 1990 nM | – | – | – | – | – | –
1.5 µM | 4210 nM | > 10000 nM | 142 nM | 37 nM | 4040 nM | – | Cc1nnc(-c2ccc3cnc(NC(=O)N4CC[C@@H](NC(C)C)[C@H](F)C4)cc3c2)s1 [Compound 130, (3R,4R)-3-Fluoro-4-(isopropylamino)-N-(6-(5-methyl-1,3,4-thiadiazol-2-yl)isoquinolin-3-yl)piperidine-1-carboxamide] | 12.2% | 3300 nM | – | – | – | – | – | –
0.337 µM | > 10000 nM | 1930 nM | 6 nM | 13 nM | 3920 nM | – | Cc1nnc(-c2ccc3cnc(NC(=O)N4CC[C@@H](N)[C@H](F)C4)cc3c2)s1 [Compound 131, (3R,4R)-4-Amino-3-fluoro-N-(6-(5-methyl-1,3,4-thiadiazol-2-yl)isoquinolin-3-yl)piperidine-1-carboxamide] | – | 1930 nM | 35.9% | – | – | – | – | –
1.4 µM | 7350 nM | > 10000 nM | 33 nM | – | 2820 nM | 22 nM | [2H]C([2H])([2H])C(N[C@H]1CCN(C(=O)Nc2cc3cc(-c4nnc(C)s4)ccc3cn2)C[C@@H]1F)C([2H])([2H])[2H] [Compound 139, (3S,4S)-3-Fluoro-N-(6-(5-methyl-1,3,4-thiadiazol-2-yl)isoquinolin-3-yl)-4-((propan-2-yl-1,1,1,3,3,3-d6)amino)piperidine-1-carboxamide] | 6.6% | 2350 nM | – | – | – | – | – | –
1 µM | 3840 nM | > 10000 nM | 62 nM | 22 nM | 3110 nM | – | Cc1nnc(-c2ccc3cnc(NC(=O)N4CCN(C(C)C)CC4)cc3c2)s1 [Compound 146, 4-Isopropyl-N-(6-(5-methyl-1,3,4-thiadiazol-2-yl)isoquinolin-3-yl) piperazine-1-carboxamide] | 2.1% | > 10000 nM | – | – | 35.1% | – | – | –
1.1 µM | 4140 nM | > 10000 nM | 37 nM | 18 nM | 3330 nM | – | Cc1nnc(-c2ccc3cnc(NC(=O)N4CCC(NCCC(F)(F)F)CC4)cc3c2)s1 [Compound 147, N-(6-(5-Methyl-1,3,4-thiadiazol-2-yl)isoquinolin-3-yl)-4-((3,3,3-trifluoropropyl)amino)piperidine-1-carboxamide] | 36.8% | 1640 nM | – | – | – | – | – | –
0.272 µM | 3920 nM | > 10000 nM | 23 nM | 13 nM | 2190 nM | – | Cc1nnc(-c2ccc3cnc(NC(=O)N4CCC(N)CC4)cc3c2)s1 [Compound 150, 4-Amino-N-(6-(5-methyl-1,3,4-thiadiazol-2-yl)isoquinolin-3-yl)piperidine-1-carboxamide] | 5.7% | > 10000 nM | – | – | 43.7% | – | – | –

Continued, compound first:

SMILES | EC50 [1, 8] | EC50 [2, 9] | EC50 [3] | EC50 [4] | EC50 [6, 10] | EC50 [7, 11] | EC50 [6] | inhibition at 10 µM [3] | EC50 [5] | inhibition at 10 µM [2, 12] | inhibition at 10 µM [7, 12] | inhibition at 10 µM [5] | EC50 ([1]; SH-SY5Y, read-out: pSer396 Tau EC50 (μM)) | inhibition at 10 µM [2, 13] | inhibition at 10 µM [7, 13]
[2H]c1c(NC(=O)C2CCN(C)CC2)ncc2ccc(-c3nnc(C)s3)cc12 [Compound 134, 1-Methyl-N-(6-(5-methyl-1,3,4-thiadiazol-2-yl)isoquinolin-3-yl-4-d) piperidine-4-carboxamide] | 0.093 µM | 2740 nM | 7130 nM | 19 nM | – | 593 nM | 6 nM | – | 579 nM | – | – | – | – | – | –
[2H]c1c(NC(=O)CN2CCOCC2)ncc2ccc(-c3nnc(C)s3)cc12 [Compound 135, N-(6-(5-Methyl-1,3,4-thiadiazol-2-yl)isoquinolin-3-yl-4-d)-2-morpholinoacetamide] | 0.365 µM | > 10000 nM | > 10000 nM | 22 nM | – | 5690 nM | 41 nM | 0% | 2140 nM | 27.8% | – | – | – | – | –
[2H]c1c(NC(=O)C2CCN(C)CC2)ncc2ccc(-c3cnc(C)o3)cc12 [Compound 136, 1-Methyl-N-(6-(2-methyloxazol-5-yl)isoquinolin-3-yl-4-d)piperidine-4-carboxamide] | 0.309 µM | 1120 nM | 463 nM | 80 nM | – | 2110 nM | 6 nM | – | 418 nM | – | – | – | – | – | –
[2H]c1c(NC(=O)CN2CCOCC2)ncc2ccc(-c3cnc(C)o3)cc12 [Compound 137, N-(6-(2-Methyloxazol-5-yl)isoquinolin-3-yl-4-d)-2-morpholinoacetamide] | 0.573 µM | > 10000 nM | 2280 nM | 68 nM | – | > 10000 nM | 18 nM | – | 3130 nM | 39% | 38.5% | – | – | – | –
[2H]C1([2H])OC([2H])([2H])C([2H])([2H])N(C(=O)Nc2cc3cc(-c4cnc(C)n4C)ccc3cn2)C1([2H])[2H] [Compound 143, N-(6-(1,2-Dimethyl-1H-imidazol-5-yl)isoquinolin-3-yl)morpholine-d8-4-carboxamide] | 7.2 µM | 3360 nM | > 10000 nM | 1780 nM | – | 2940 nM | 11 nM | 5.7% | > 10000 nM | – | – | 40.4% | – | – | –
[2H]C([2H])([2H])N([C@H]1CC[C@H](C(=O)Nc2cc3cc(-c4cnc(C)o4)ccc3cn2)CC1)C([2H])([2H])[2H] [Compound 144, trans-4-(Bis(methyl-d3)amino)-N-(6-(2-methyloxazol-5-yl)isoquinolin-3-yl) cyclohexane-1-carboxamide] | > 10 µM | 3770 nM | > 10000 nM | 21 nM | – | > 10000 nM | 20 nM | 14.3% | 1380 nM | – | 35.8% | – | – | – | –
[2H]C([2H])([2H])N([C@H]1CC[C@H](C(=O)Nc2cc3cc(-c4cnn(C)c4)ccc3cn2)CC1)C([2H])([2H])[2H] [Compound 145, trans-4-(Bis(methyl-d3)amino)-N-(6-(1-methyl-1H-pyrazol-4-yl)isoquinolin-3-yl)cyclohexane-1-carboxamide] | 0.503 µM | 1490 nM | 371 nM | 80 nM | – | 1820 nM | 2 nM | – | 72 nM | – | – | – | – | – | –
Cc1ncc(-c2ccc3cnc(NC(=O)[C@H]4CC[C@H](NCCC(F)(F)F)CC4)cc3c2)o1 [Compound 148, trans-N-(6-(2-Methyloxazol-5-yl)isoquinolin-3-yl)-4-((3,3,3-trifluoropropyl)amino)cyclohexane-1-carboxamide] | 0.599 µM | 1200 nM | 414 nM | 257 nM | 14 nM | 3440 nM | – | – | 286 nM | – | – | – | – | – | –
Cc1ncc(-c2ccc3cnc(NC(=O)[C@H]4CC[C@H](N)CC4)cc3c2)o1 [Compound 149, trans-4-amino-N-(6-(2-methyloxazol-5-yl)isoquinolin-3-yl)cyclohexane-1-carboxamide] | 1.1 µM | 1340 nM | 379 nM | 128 nM | 7 nM | 1400 nM | – | – | 216 nM | – | – | – | – | – | –
Cc1nnc(-c2ccc3cnc(NC(=O)N4[C@@H]5CC[C@H]4C[C@H](N)C5)cc3c2)s1 [Compound 151, (1R,5S)-3-exo-Amino-N-(6-(5-methyl-1,3,4-thiadiazol-2-yl)isoquinolin-3-yl)-8-azabicyclo[3.2.1]octane-8-carboxamide] | – | > 10000 nM | > 10000 nM | 103 nM | 9 nM | > 10000 nM | – | 13.1% | 2690 nM | – | – | – | 2.6 µM | 0% | 4.4%
